Where two headings read alike, the source gives them in different places.
Experiments:
CDK6/D3 = CDK6/D3 (Homo sapiens (Human), UniProt Q00534); assay: CDKs inhibition assay (ADP-Glo Kinase Assay), CDK6
Description: (2) Preparation of Test Compound:
(§1) a. Test compounds at a certain concentration were taken respectively, and diluted with kinase reaction buffer I to compound solutions with a final concentration of 50 μM;
(§2) 4. Preparation of reaction substrate and ATP mixed solution:
a. Preparation of ATP solution:
(§3) 200 μl of 0.1 mM ATP solution: 2 μl of 10 mM ATP was added into 198 μl kinase reaction buffer I;
(§4) 300 μl of 50 μl M ATP solution: 150 μl kinase reaction buffer I was added into 150 μl of above-mentioned 0.1 mM ATP solution;
(§5) b. Preparation of 300 μl reaction substrate solution:
(§6) 150 μl of 1 μg/μl reaction substrate stock solution was added into 150 μl kinase reaction buffer I and uniformly mixed;
(§7) c. Above-mentioned a/b solutions were mixed to obtain mixed solutions respectively.
(§8) 2 μl compound solution at each concentration was added into a 384-well plate respectively, and centrifuged for 3 min;
(§9) 4 μl kinase solution was added into each well, centrifuged at 5000 rpm for 10 min at 18° C., and shaked well for 10 min on a shaker;
(§10) 4 μl substrate and ATP mixed solution were added into each well, centrifuged at 5000 rpm for 10 min at 18° C., and shaked well for 90 min on a shaker at 37° C.;
(§11) The 384 well plate was removed and allow to achieve room temperature;
(§12) 10 μl ADP-Glo reagent was added into each well, centrifuged at 5000 rpm for 10 min at 18° C., and shaked well for 40 min on a shaker at 25° C. to terminate the reaction;
(§13) 20 μl kinase assay reagent was added into each well, centrifuged at 5000 rpm for 10 min at 18° C., and shaked well for 30 min on a shaker at 25° C.;
(§14) Fluorescence values were read by M1000pro microplate reader.
(§15) The inhibition rate of each compound at each concentration point was calculated according to the following equation, and IC50 value was calculated by curve fitting using GraphPad Prism 5 software.

CDK4/D3 = CDK4/D3 (Homo sapiens (Human), UniProt P11802); assay: CDKs inhibition assay (ADP-Glo Kinase Assay), CDK4
Description: (2) Preparation of Test Compound:
as §1, §2
a. Preparation of ATP solution:
as §3, §4, §5, §6, §7, §8, §9, §10, §11, §12, §13, §14, §15

[1] = tested on: human breast cancer cell line MDB-MA-231; assay: Proliferation inhibition assay on human breast cancer cell line MDA-MB-231 (DAPI staining, In Cell Analyzer); assay type: cell-based
Description: Experimental Preparation:
1. MDA-MB-231 cells were seeded at 4000 cells/100 ul/well to a 96-well plate with black transparent bottom, and cultured overnight at 37° C.;
3. Fixation: the cell plate was taken, medium was removed, and 50 μl of 4% paraformaldehyde was added to each well and fixed 10 min;
4.50 μl 0.1 M glycine was added to neutralize for 10 min;
6. Permeabilization: 50 ul of 0.2% TritonX-100 was added to each well and permeabilized at room temperature for 10 min;
8.5 mg/mL DAPI stock solution was diluted at 1:5000 (final concentration 1 μg/ml) and the cells were stained at room temperature for 20 min.
10. The plate was scanned and analyzed on In cell analyser.

[2] = MDA-MB-231, read-out: IC50 for inhibition of proliferation of human breast cancer cell line MDB-MA-231, 72 h incubation
[3] = MDA-MB-231, 72 h, read-out: IC50 for inhibition of proliferation of human breast cancer cell line MDB-MA-231

CDK4/D3, sequence (P11802 whole entry): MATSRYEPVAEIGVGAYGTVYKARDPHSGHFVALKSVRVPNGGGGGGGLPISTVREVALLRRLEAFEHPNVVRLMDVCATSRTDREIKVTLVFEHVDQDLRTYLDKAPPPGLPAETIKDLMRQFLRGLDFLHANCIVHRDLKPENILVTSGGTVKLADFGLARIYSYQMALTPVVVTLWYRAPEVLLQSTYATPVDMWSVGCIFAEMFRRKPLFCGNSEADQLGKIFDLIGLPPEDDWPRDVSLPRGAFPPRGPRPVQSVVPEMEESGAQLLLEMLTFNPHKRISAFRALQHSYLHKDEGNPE
CDK4/D3, sequence (P30281 whole entry partner): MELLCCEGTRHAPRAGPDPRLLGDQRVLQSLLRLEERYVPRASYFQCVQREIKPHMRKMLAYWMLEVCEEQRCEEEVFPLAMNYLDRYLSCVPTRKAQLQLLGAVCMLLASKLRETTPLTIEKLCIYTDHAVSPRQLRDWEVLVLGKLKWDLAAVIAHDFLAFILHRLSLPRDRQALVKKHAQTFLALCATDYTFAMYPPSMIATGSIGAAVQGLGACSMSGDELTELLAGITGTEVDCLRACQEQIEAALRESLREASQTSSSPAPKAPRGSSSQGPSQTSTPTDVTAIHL
CDK6/D3, sequence (Q00534 whole entry): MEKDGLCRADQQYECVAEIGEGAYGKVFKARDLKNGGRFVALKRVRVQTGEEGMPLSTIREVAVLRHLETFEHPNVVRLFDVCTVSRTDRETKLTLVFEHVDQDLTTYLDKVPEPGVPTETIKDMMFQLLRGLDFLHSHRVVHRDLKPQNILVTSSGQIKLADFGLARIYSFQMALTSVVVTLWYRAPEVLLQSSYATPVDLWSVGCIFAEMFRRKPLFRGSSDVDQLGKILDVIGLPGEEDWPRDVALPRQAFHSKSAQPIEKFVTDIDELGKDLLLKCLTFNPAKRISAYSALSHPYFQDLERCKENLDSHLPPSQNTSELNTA
CDK6/D3, sequence (P30281 whole entry partner): as the sequence (P30281 whole entry partner) above

| Structure (SMILES) | IC50 (CDK6/D3) | IC50 (CDK4/D3) | IC50 [1, 2] | IC50 [1, 3] |
| --- | --- | --- | --- | --- |
| CCN1CCN(C(=O)c2ccc(Nc3ncc(F)c(-c4cc(F)c5nc6n(c5c4)C(C)(C)CC6)n3)nc2)CC1 [Example 32, (4-Ethylpiperazin-1-yl)(6-((5-fluoro-4-(5-fluoro-1,1-dimethyl-2,3-dihydro-1H-benzo[d]pyrrolo[1,2-a]imidazol-7-yl)pyrimidin-2-yl)amino)pyridin-3-yl)methyl ketone] | 13 nM | 49 nM | 579 nM | – |
| Fc1cnc(Nc2ccc(N3CCNCC3)cn2)nc1-c1cc(F)c2nc3n(c2c1)CCCC3 [Example 13, 5-Fluoro-4-(6-fluoro-1,2,3,4-tetrahydrobenzo[4,5]imidazo[1,2-a]pyridin-8-yl)-N-(5-(piperazin-1-yl)pyridin-2-yl)pyrimidin-2-amine] | 62.7 nM | 18 nM | – | 1170 nM |
| CC1(C)CCc2nc3c(F)cc(-c4nc(Nc5ccc(C6CCNCC6)cn5)ncc4F)cc3n21 [Example 26] | – | – | 214 nM | – |
| CN(C)C1CCN(c2ccc(Nc3ncc(F)c(-c4cc(F)c5nc6n(c5c4)C(C)(C)CC6)n3)nc2)CC1 [Example 71, N-(5-(4-(Dimethylamino)piperidine-1-yl)pyridin-2-yl)-5-fluoro-4-(5-fluoro-1,1-dimethyl-2,3-dihydro-1H-benzo[d]pyrrolo[1,2-a]imidazol-7-yl)pyrimidin-2-amine] | 14 nM | 1 nM | 46 nM | – |
| O=C(CO)N1CCc2nc(Nc3ncc(F)c(-c4cc(F)c5nc6n(c5c4)CCCC6)n3)ccc2C1 [Example 15, 1-(2-((5-Fluoro-4-(6-fluoro-1,2,3,4-tetrahydrobenzo[4,5]imidazo[1,2-a]pyridin-8-yl)pyrimidin-2-yl)amino)-7,8-dihydro-1,6-naphthyridin-6(5H)-yl)-2-hydroxyethan-1-one] | 68.6 nM | 28 nM | – | 1230 nM |
| CC1Cc2nc3c(F)cc(-c4nc(Nc5ccc(N6CCNCC6)cn5)ncc4F)cc3n2C1 (stereo not shown) [Example 50, 5-Fluoro-4-(5-fluoro-2-methyl-2,3-dihydro-1H-benzo[d]pyrrolo[1,2-a]imidazol-7-yl)-N-(5-(piperazin-1-yl)pyridin-2-yl)pyrimidin-2-amine] | 368 nM | 17.6 nM | 3650 nM | – |
| Cc1nc(Nc2ncc(F)c(-c3cc(F)c4nc5n(c4c3)C(C)CC5)n2)ccc1CC1CCNCC1 (stereo not shown) [Example 62, 5-Fluoro-4-(5-fluoro-1-methyl-2,3-dihydro-1H-benzo[d]pyrrolo[1,2-a]imidazol-7-yl)-N-(6-methyl-5-(piperidine-4-methylene)pyridin-2-yl)pyrimidin-2-amine] | 34 nM | 1.7 nM | 1320 nM | – |
| CC1(C)CCc2nc3c(F)cc(-c4nc(Nc5ccc6c(n5)CCN(C(=O)CO)C6)ncc4F)cc3n21 [Example 21, 1-(2-((5-Fluoro-4-(5-fluoro-1,1-dimethyl-2,3-dihydro-1H-benzo[d]pyrrolo[1,2-a]imidazol-7-yl)pyrimidin-2-yl)amino)-7,8-dihydro-1,6-naphthyridin-6(5H)-yl)-2-hydroxyethan-1-one] | 17.6 nM | – | – | – |
| CC1CCc2nc3c(F)cc(-c4nc(Nc5ccc6c(n5)CCN(C(=O)CO)C6)ncc4F)cc3n21 (stereo not shown) [Example 58, 1-(2-((5-Fluoro-4-(5-fluoro-1-methyl-2,3-dihydro-1H-benzo[d]pyrrolo[1,2-a]imidazol-7-yl)pyrimidin-2-yl)amino)-7,8-dihydro-1,6-naphthyridin-6(5H)-yl)-2-hydroxyethan-1-one] | 47.3 nM | 28 nM | 458 nM | – |
| CC1(C)CCc2nc3c(F)cc(-c4ccnc(Nc5ccc(N6CCNCC6)cn5)n4)cc3n21 [Example 23, 4-(5-Fluoro-1,1-dimethyl-2,3-dihydro-1H-benzo[d]pyrrolo[1,2-a]imidazol-7-yl)-N-(5-(piperazin-1-yl)pyridin-2-yl)pyrimidin-2-amine] | 90 nM | – | 543 nM | – |
| CC1(C)CCc2nc3c(F)cc(-c4nc(Nc5ccc(OC6CCNCC6)cn5)ncc4F)cc3n21 [Example 34, 5-Fluoro-4-(5-fluoro-1,1-dimethyl-2,3-dihydro-1H-benzo[d]pyrrolo[1,2-a]imidazol-7-yl)-N-(5-(piperidine-4-yloxy)pyridin-2-yl)pyrimidin-2-amine] | 3.8 nM | 3.9 nM | 35 nM | – |
| CCC1Cc2nc3c(F)cc(-c4nc(Nc5ccc(N6CCNCC6)cn5)ncc4F)cc3n2C1 (stereo not shown) [Example 52, 4-(2-Ethyl-5-fluoro-2,3-dihydro-1H-benzo[d]pyrrolo[1,2-a]imidazol-7-yl)-5-fluoro-N-(5-(piperazin-1-yl)pyridin-2-yl)pyrimidin-2-amine] | 144 nM | 60.7 nM | 1680 nM | – |
| CCN1CCC(c2ccc(Nc3ncc(F)c(-c4cc(F)c5nc6n(c5c4)C(C)(C)CC6)n3)nc2)CC1 [Example 45, N-(5-(1-Ethylpiperidine-4-yl)pyridin-2-yl)-5-fluoro-4-(5-fluoro-1,1-dimethyl-2,3-dihydro-1H-benzo[d]pyrrolo[1,2-a]imidazol-7-yl)pyrimidin-2-amine] | 21.7 nM | 7 nM | – | 30 nM |
| Cc1nc(Nc2ncc(F)c(-c3cc(F)c4nc5n(c4c3)C(C)(C)CC5)n2)ccc1N1CCNCC1 [Example 31] | 55 nM | 2 nM | 129 nM | – |

The next lines start with results.

| IC50 (CDK6/D3) | IC50 (CDK4/D3) | IC50 [1, 2] | Structure (SMILES) | IC50 [1, 3] |
| --- | --- | --- | --- | --- |
| 6 nM | 9 nM | – | CCC1CCc2nc3c(F)cc(-c4nc(Nc5ccc(C6CCN(C)CC6)cn5)ncc4F)cc3n21 (stereo not shown) [Example 68, 4-(1-Ethyl-5-fluoro-2,3-dihydro-1H-benzo[d]pyrrolo[1,2-a]imidazolel-7-yl)-5-fluoro-N-(5-(1-methylpiperidine-4-yl)pyridin-2-yl)pyrimidin-2-amine] | – |
| 80 nM | 3.9 nM | 1530 nM | CC1CCc2nc3c(F)cc(-c4nc(Nc5ccc(C6CCNCC6)cn5)ncc4F)cc3n21 (stereo not shown) [Example 61] | – |
| 7.6 nM | 3.2 nM | 20 nM | CCN1CCC(Oc2ccc(Nc3ncc(F)c(-c4cc(F)c5nc6n(c5c4)C(C)(C)CC6)n3)nc2)CC1 [Example 33, N-(5-((1-Ethylpiperidine-4-yl)oxy)pyridin-2-yl)-5-fluoro-4-(5-fluoro-1,1-dimethyl-2,3-dihydro-1H-benzo[d]pyrrolo[1,2-a]imidazol-7-yl)pyrimidin-2-amine] | – |
| 21.4 nM | 4.3 nM | – | CC1CCc2nc3c(F)cc(-c4nc(Nc5ccc(C6CCN(C)CC6)cn5)ncc4F)cc3n21 (stereo not shown) [Example 66] | – |
| 24.4 nM | 40 nM | – | CCN1CCC(c2ccc(Nc3ncc(F)c(-c4cc(F)c5nc6n(c5c4)C(C)CC6)n3)nc2)CC1 (stereo not shown) [Example 69, N-(5-(1-Ethylpiperidine-4-yl)pyridin-2-yl)-5-fluoro-4-(5-fluoro-1-methyl-2,3-dihydro-1H-benzo[d]pyrrolo[1,2-a]imidazol-7-yl)pyrimidin-2-amine] | – |
| 9.6 nM | 19 nM | 252 nM | CCC1CCc2nc3c(F)cc(-c4nc(Nc5ccc(N6CCNCC6)cn5)ncc4F)cc3n21 (stereo not shown) [Example 54, 4-(1-Ethyl-5-fluoro-2,3-dihydro-1H-benzo[d]pyrrolo[1,2-a]imidazol-7-yl)-5-fluoro-N-(5-(piperazin-1-yl)pyridin-2-yl)pyrimidin-2-amine] | – |

Reference: US10696678B2, “Kinase inhibitor, and preparing method and pharmaceutical use thereof” (GAN & LEE PHARMACEUTICALS, priority 2015, dated 2020)
